Source: the NIST ThermoML archive (doi:10.1007/s10765-012-1185-1)
Numbers after ± are expanded uncertainties.

Conditions: Gas

[C-]#[O+] [carbon monoxide]
Conditions | viscosity [mPa·s]
288.72 K, Mass density=0.52 kg/m3 | 0.01732 ± 0.00012
288.91 K, Mass density=0.78 kg/m3 | 0.01733 ± 0.00012
292.39 K, Mass density=0.52 kg/m3 | 0.0175 ± 0.00012
296.53 K, Mass density=0.78 kg/m3 | 0.0177 ± 0.00013
296.67 K, Mass density=0.78 kg/m3 | 0.0177 ± 0.00013
296.74 K, Mass density=0.52 kg/m3 | 0.01769 ± 0.00013
296.81 K, Mass density=0.52 kg/m3 | 0.0177 ± 0.00013
297.19 K, Mass density=0.52 kg/m3 | 0.01771 ± 0.00013
298.54 K, Mass density=0.52 kg/m3 | 0.01778 ± 0.00013
298.58 K, Mass density=0.52 kg/m3 | 0.01778 ± 0.00013
299.09 K, Mass density=0.52 kg/m3 | 0.0178 ± 0.00013
299.27 K, Mass density=0.52 kg/m3 | 0.01781 ± 0.00013
323.27 K, Mass density=0.78 kg/m3 | 0.0189 ± 0.00013
323.95 K, Mass density=0.52 kg/m3 | 0.01894 ± 0.00013
349.98 K, Mass density=0.78 kg/m3 | 0.02007 ± 0.00014
350.09 K, Mass density=0.52 kg/m3 | 0.02007 ± 0.00014
377.57 K, Mass density=0.78 kg/m3 | 0.02123 ± 0.00015
377.81 K, Mass density=0.52 kg/m3 | 0.02123 ± 0.00015
405.3 K, Mass density=0.78 kg/m3 | 0.02235 ± 0.00015
405.55 K, Mass density=0.52 kg/m3 | 0.02236 ± 0.00015
433.29 K, Mass density=0.78 kg/m3 | 0.02345 ± 0.00016
433.45 K, Mass density=0.52 kg/m3 | 0.02345 ± 0.00016
461.39 K, Mass density=0.78 kg/m3 | 0.02452 ± 0.00016
461.45 K, Mass density=0.52 kg/m3 | 0.02451 ± 0.00016
489.68 K, Mass density=0.78 kg/m3 | 0.02558 ± 0.00017
489.81 K, Mass density=0.52 kg/m3 | 0.02557 ± 0.00017
518.13 K, Mass density=0.78 kg/m3 | 0.02659 ± 0.00018
518.44 K, Mass density=0.52 kg/m3 | 0.0266 ± 0.00018
542.05 K, Mass density=0.52 kg/m3 | 0.02744 ± 0.00018
542.09 K, Mass density=0.78 kg/m3 | 0.02744 ± 0.00018
564.73 K, Mass density=0.78 kg/m3 | 0.02822 ± 0.00019
593.37 K, Mass density=0.52 kg/m3 | 0.02919 ± 0.00019
593.52 K, Mass density=0.78 kg/m3 | 0.0292 ± 0.00019
622.5 K, Mass density=0.52 kg/m3 | 0.03015 ± 0.0002
622.67 K, Mass density=0.78 kg/m3 | 0.03016 ± 0.0002
651.51 K, Mass density=0.78 kg/m3 | 0.0311 ± 0.0002
651.68 K, Mass density=0.52 kg/m3 | 0.0311 ± 0.0002
680.94 K, Mass density=0.78 kg/m3 | 0.03203 ± 0.00021
681.07 K, Mass density=0.52 kg/m3 | 0.03203 ± 0.00021

N#N [nitrogen]
Mass density=0.72 kg/m3
Conditions | viscosity [mPa·s]
291.55 K | 0.01747 ± 0.00012
294.73 K | 0.01762 ± 0.00013
296.88 K | 0.01771 ± 0.00013
324 K | 0.01894 ± 0.00013
350.42 K | 0.02009 ± 0.00014
378.04 K | 0.02125 ± 0.00015
405.75 K | 0.02237 ± 0.00015
433.79 K | 0.02347 ± 0.00016
461.81 K | 0.02453 ± 0.00016
490.21 K | 0.02559 ± 0.00017
518.59 K | 0.02661 ± 0.00018
542.47 K | 0.02747 ± 0.00018
565.16 K | 0.02825 ± 0.00019
594.04 K | 0.02922 ± 0.00019
623.22 K | 0.0302 ± 0.0002
652.36 K | 0.03114 ± 0.0002
681.99 K | 0.03209 ± 0.00021
